Reference: patent US20120195959A1, “METHOD FOR TREATING DISEASE OR DISORDER OF ADULT CENTRAL NERVOUS SYSTEM ASSOCIATED WITH TISSUE SHRINKAGE OR ATROPHY BY ADMINISTRATION OF INSULIN” (priority 2005, published 2012)
Entries after “also recorded” stand apart in the source; their conditions may differ.

Experiments:
[1] = system: patients; details: insulin infusion, glucose levels kept constant in patients; cited from earlier work
[2] = system: diabetic rats; assay: Serum glucose and body weight in the same experiment at 10 weeks; assay type: in vivo, rat; details: 0.3 U insulin per kg per day intracerebroventricular
Method: (§1) Adult rats were randomly assigned to treatment groups, some of which were treated with streptozotocin to induce diabetes. Alzet osmotic minipumps (pump rate, 0.5 μl per hour) were connected to catheters that delivered either artificial cerebrospinal fluid (D+aCSF) or 0.3 U insulin per kg body weight per day (D+Insulin) into the brain lateral ventricles of diabetic rats for 10 weeks. Pumps were replaced every two weeks. Brains were removed and the wet weight determined. The brains were homogenized in a buffer, and aliquots were taken to determine dry weight. The water weight was calculated as the difference between brain wet and dry weights. The results are shown in FIGS. 1A-1C, wherein the values are means±SEM (N=7 rats per group). Newman-Keuls posthoc test of means was calculated using CSS Statistica software package.
In the same experiment described in FIGS. 1A-1C, rats were weighed and tail blood was withdrawn for glucose assay prior to euthanasia at 10 weeks. Values are means±SEM. Newman-Keuls posthoc test of means was calculated using CSS Statistica software package.

[3] = system: diabetic rats; assay: Brain atrophy in streptozotocin-diabetic rats, insulin infused into brain lateral ventricles; assay type: in vivo, rat; details: 0.3 U insulin per kg body weight per day into brain lateral ventricles for 10 weeks; D+Insulin vs D+aCSF P<0.02; N=7 rats per group
Method: as §1

Q: Which results are given for insulin?
A: number of different genes whose expression is regulated in a muscle biopsy [1]: over 700; loss of body weight ([2]; D+Insulin vs D+aCSF P<0.02): partially prevented loss of body weights; hyperglycemia (serum glucose levels) ([2]; D+Insulin vs D+aCSF nonsignificant): no effect on hyperglycemia; brain atrophy, loss of brain wet and dry weights [3]: prevented brain atrophy; also recorded: completely normalized brain weight
